Measured values: patent publication US20190147975A1, “SF3B1 SUPPRESSION AS A THERAPY FOR TUMORS HARBORING SF3B1 COPY LOSS” (DANA-FARBER CANCER INSTITUTE, INC., priority 2016, published 2019)

Columns and labels:
Hs578T, Cal51 cells = assay: Drug sensitivity curves for splicing inhibitors in cells without and with SF3B1 suppression; assay type: cell-based, human
Source text: FIG. 26A is a series of graphs showing drug sensitivity curves for indicated splicing inhibitors (“NSC-95397”, “pladienolide B”, “spliceostatin A”) in cells (“Hs578T”, “Cal51”) without and with SF3B1 suppression.

SF3B1 = assay: Immunoblot of SF3B1 expression in Cal51 cells treated with DUB inhibitors; assay type: cell-based, human; details: treated for 4 or 24 hours
Method: FIG. 37 is an immunoblot showing SF3B1 expression in Cal51 cells treated with de-ubiquitinase (DUB) inhibitors (“PR-619”, “b-AP15”, “SJB3-019A”) for 4 or 24 hours. For all figures, *p<0.05, **p<0.01, ***p<0.001 unless otherwise indicated, and error bars represent +/−standard deviation.
In addition to SF3B1 RNA interference and SF3B inhibition, SF3B1 suppression can be exerted by deubiquitinase (DUB) inhibition. […] Therefore, DUB inhibitors may be capable of killing SF3B1^loss cells specifically.
For denaturing protein immunoblots, cells were washed in ice cold PBS and lysed in 1× RIPA buffer (10 mM Tris-Cl Ph 8.0, 1 mM EDTA, 1% Triton X-100, 0.1% SDS and 140 mM NaCl) supplemented with lx protease and phosphatase inhibitor cocktail (PI-290, Boston Bioproducts). Lysates were sonicated in a bioruptor (Diagenode) for 5 minutes (medium intensity) and cleared by centrifugation at 15000×g for 15 min at 4 C. Proteins were electrophoresed on polyacrylamide gradient gels (Life Technologies) and detected by chemiluminescence. For native western blotting, cells were washed in ice cold PBS and lysed in 1× sonication buffer (10% Glycerol, 25 mM HEPES pH 7.4, 10 mM MgCl2) supplemented with protease and phosphatase inhibitors. Coomassie blue native PAGE western blots were run according the manufacturer's instructions (Life Technologies).

[1] = tested on: SF3B1^neutral Cal51 xenografts; assay: Growth of established xenograft tumors without or with doxycycline; assay type: in vivo; details: with doxycycline vs without
Source text: FIG. 36A is a graph showing growth of established tumors for Cal51 xenografts without doxycycline (“−Dox”, n=13) or with doxycycline (“+Dox”, n=12) using TR-shSF3B1 #3.
(§1) To test the effects of SF3B1 suppression in vivo, xenografts were generated using luciferase-labeled cell lines from the CRISPR^frameshift-loss and CRISPR^neutral#1 cells containing TR-shSF3B1#3. Animals were placed on doxycycline upon detection of palpable tumors. CRISPR^frameshift-loss and CRISPR^neutral#1 cells generated tumors of similar volume in the absence of doxycycline (FIG. 34; p=0.7, repeated measures ANOVA).

[2] = tested on: SF3B1^loss HCC1954 xenografts; assay: as above; assay type: in vivo; details: with doxycycline vs without
Source text: FIG. 36B is a graph showing growth of established tumors for HCC1954 xenografts without doxycycline (“−Dox”, n=13) or with doxycycline (“+Dox”, n=12) using TR-shSF3B1 #3. ***p≤0.001.
as §1

[3] = tested on: CRISPR^frameshift-loss xenografts; assay: Xenograft growth with doxycycline-induced SF3B1 suppression; assay type: in vivo, nude mice; details: doxycycline-induced shRNA, p=0.001
Source text: as §1
All animal husbandry was done with the approval of the Dana-Farber Cancer Institute IACUC. 1×10^6 CRISPR^neutral#1 or CRISPR^frameshift-loss cells expressing TR-shSF3B1 #3 were subcutaneously injected into opposing flanks of nude mice (Foxn1 nu/nu, Harlan). Animals were randomized to control group or doxycycline treatment after detection of a palpable tumor on either flank. Mice in the doxycycline treatment arm were continuously fed a doxycycline diet (2,000 ppm). Mice were sacrificed at the end of the experiment, or when endpoints were reached based on failure to thrive according to IACUC recommendation. […]
A custom image analysis pipeline was used to systematically quantify Ki67+ cells from tumor xenografts using CellProfilier. A minimum of 3 tumors per group, totaling at least 2,440 nuclei per tumor, was used to quantify the ratio of Ki67+ cells. At least 5 individual and random microscopic images from each tumor were analyzed.

O=C1C(SCCO)=C(SCCO)C(=O)c2ccccc21 [NSC95397]
increased effects on cells with SF3B1 copy-loss or suppression (Hs578T, Cal51 cells; cells with SF3B1 copy-loss or suppression): failed to exhibit increased effects

N#CSc1cc(SC#N)c(N)nc1N [PR-619]
SF3B1 expression (SF3B1): significant decrease

O=C1c2ccccc2C(=O)c2oc(-c3cccnc3)nc21 [SJB3-019A]
SF3B1 expression (SF3B1): significant decrease

CO[C@]1(C)C[C@@]2(CO2)[C@H](O)[C@@H](/C=C/C(C)=C/C[C@@H]2O[C@H](C)[C@H](NC(=O)/C=C\[C@H](C)OC(C)=O)C[C@@H]2C)O1 [Spliceostatin A]
cell death (Hs578T, Cal51 cells; Hs578T breast cancer cells, when suppression of SF3B1 expression is induced): increased cell death

C=CC(=O)N1C/C(=C\c2ccc([N+](=O)[O-])cc2)C(=O)/C(=C/c2ccc([N+](=O)[O-])cc2)C1 [b-AP15]
SF3B1 expression (SF3B1): significant decrease

B1: TR-shSF3B1#3: doxycycline-inducible shRNA targeting SF3B1 in pLKO-Tet-puro, SEQ ID NO: 12/13 (nucleic acid)
sense: CCGGCAACTCCTTATGGTATCGAATCTCGAGATTCGATACCATAAGGAGTTGTTTTTG
antisense: AATTCAAAAACAACTCCTTATGGTATCGAATCTCGAGATTCGATACCATAAGGAGTTG
tumor growth [1]: not in SF3B1^neutral Cal51 xenografts
tumor growth [2]: reduced tumor growth was observed
number of proliferative Ki67+ cells ([3]; Ki67 immunohistochemistry): reduced
growth of tumor ([3]; luminescent quantification): reduced the growth of tumor
